Test system: brains, heart, liver, muscle, and DRG of the NHPs
Test: Maturation of TTM-001 and TTM-002 capsids, NGS enrichment in NHP tissues
Format: in vivo
Source text: This Example describes maturation of the AAV9 capsid variants, TTM-001 (SEQ ID NO: 981 (amino acid) and 983 (DNA), comprising SEQ ID NO: 941 (encoded by SEQ ID NO: 942)) and TTM-002 (SEQ ID NO: 982 (amino acid) and 984 (DNA), comprising SEQ ID NO: […] (encoded by SEQ ID NO: 944)) in NHPs to further enhance their transduction and biodistribution in the central nervous system as well as other tissues, and evolve the AAV capsid variants to provide further cross-species compatibility. Two approaches were used to mature the TTM-001 and TTM-002 capsid sequences in order to randomize and mutate within and around the peptide insert comprised within loop IV of the capsid variant. […] In the first maturation approach, sets of three contiguous amino acids were randomized across the mutagenesis region in the TTM-001 and TTM-002 sequences, which spanned from position 450 to position 466, numbered according to SEQ ID NO: 981 and 982. In the second maturation approach, mutagenic primers were used to introduce point mutations at a low frequency, scattered across the mutagenesis region in the TTM-001 and TTM-002 sequences ranging from position 449 to position 466, numbered according to SEQ ID NO: 981 and 982. AAV capsid variants arising from each maturation approach for TTM-001 and TTM-002 were pooled together, for subsequent testing and characterization in NHPs.
The library of pooled matured AAV capsid variants generated using the first maturation approach and the second maturation approach for the TTM-001 and TTM-002 AAV capsid variants were injected into two NHPs. […] Following RNA recovery and RT-PCR amplification, a systematic NGS enrichment analysis was performed to calculate the fold enrichment ratio relative to an AAV9 control, and the peptides comprised within the variants were identified.
Following the RNA recovery and NGS analysis from the second maturation approach, approximately 680,000 capsid variants were identified. The 680,000 matured capsid variants were then filtered based on samples with a raw virus count greater than 10 and a coefficient of variance (CV) of less than 1, which was calculated for each peptide across the brain samples taken from the two NHPs. […] Using this filtering criteria, this led to approximately 64,000 matured capsid variants.

[1] = NGS fold-enrichment, DRG, NHP, relative to AAV9
[2] = NGS fold-enrichment, brain, NHP, relative to AAV9
[3] = NGS fold-enrichment, heart, NHP, relative to AAV9
[4] = NGS fold-enrichment, liver DNA, NHP, relative to AAV9
[5] = NGS fold-enrichment, liver RNA, NHP, relative to AAV9
[6] = NGS fold-enrichment, muscle, NHP, relative to AAV9
[7] = NHP DRG, NGS, relative to AAV9 control
[8] = NHP brain, NGS, relative to AAV9 control
[9] = NHP heart, NGS, relative to AAV9 control
[10] = NHP liver DNA, NGS, relative to AAV9 control
[11] = NHP liver RNA, NGS, TTM-001 and TTM-002 matured AAV capsid variants, relative to AAV9 control
[12] = NHP muscle, NGS, relative to AAV9 control

Row | Sequence | Fold Enrichment relative to AAV9, DRG (NHP) [1] [fold] | Fold Enrichment relative to AAV9, Brain (NHP) [2] [fold] | Fold Enrichment relative to AAV9, Heart (NHP) [3] [fold] | Fold Enrichment relative to AAV9, Liver DNA (NHP) [4] [fold] | Fold Enrichment relative to AAV9, Liver RNA (NHP) [5] [fold] | Fold Enrichment relative to AAV9, Muscle (NHP) [6] [fold] | Fold Enrichment relative to AAV9, DRG (NHP) [7] [fold] | Fold Enrichment relative to AAV9, Brain (NHP) [8] [fold] | Fold Enrichment relative to AAV9, Heart (NHP) [9] [fold] | Fold Enrichment relative to AAV9, Liver DNA (NHP) [10] [fold] | Fold Enrichment relative to AAV9, Liver RNA (NHP) [11] [fold] | Fold Enrichment relative to AAV9, Muscle (NHP) [12] [fold]
1 | KTINGSGSPHSCQSNQQT | 0.000 | 0.000 | 0.000 | 1.468 | 10.631 | 0.000 |  |  |  |  |  | 
2 | KTINGSGSPHSCSRNQQT |  |  |  |  |  |  | 0.000 | 0.000 | 0.000 | 4.293 | 40.372 | 0.000
3 | KTINGSGSPHSFFGNQQT |  |  |  |  |  |  | 0.000 | 0.000 | 0.000 | 6.101 | 38.088 | 0.000
4 | KTINGSGSPHSFPFNQQT |  |  |  |  |  |  | 0.000 | 0.000 | 0.000 | 4.693 | 38.584 | 0.000
5 | KTINGSGSPHSFQINQQT |  |  |  |  |  |  | 0.000 | 0.308 | 1.568 | 0.269 | 17.418 | 0.000
6 | KTINGSGSPHSFRPNQQT |  |  |  |  |  |  | 0.000 | 0.000 | 0.000 | 9.191 | 44.801 | 0.000
7 | KTINGSGSPHSFRYNQQT |  |  |  |  |  |  | 0.000 | 0.000 | 0.000 | 4.148 | 21.097 | 0.000
8 | KTINGSGSPHSFTCNQQT |  |  |  |  |  |  | 0.000 | 0.000 | 0.000 | 2.155 | 63.936 | 271.289
9 | KTINGSGSPHSFTPNQQT |  |  |  |  |  |  | 0.000 | 0.000 | 0.000 | 1.036 | 24.227 | 0.000
10 | KTINGSGSPHSFWSNQQT |  |  |  |  |  |  | 0.000 | 0.000 | 0.000 | 1.345 | 22.857 | 0.000
11 | KTINGSGSPHSGACNQQT |  |  |  |  |  |  | 0.000 | 0.000 | 0.000 | 3.215 | 39.163 | 4733.916
12 | KTINGSGSPHSGCQNQQT |  |  |  |  |  |  | 0.000 | 0.000 | 0.000 | 1.981 | 24.818 | 0.000
13 | KTINGSGSPHSGKRNQQT |  |  |  |  |  |  | 0.000 | 0.000 | 0.000 | 5.396 | 35.120 | 0.000
14 | KTINGSGSPHSKAARRQT |  |  |  |  |  |  | 0.000 | 0.000 | 0.000 | 6.633 | 19.998 | 0.000
15 | KTINGSGSPHSKACISQT |  |  |  |  |  |  | 0.000 | 0.000 | 0.000 | 0.240 | 17.371 | 0.000
16 | KTINGSGSPHSKACQFQT |  |  |  |  |  |  | 0.000 | 0.000 | 0.000 | 8.562 | 17.640 | 9.605
17 | KTINGSGSPHSKACRLQT |  |  |  |  |  |  | 0.000 | 0.000 | 0.000 | 6.537 | 12.297 | 0.000
18 | KTINGSGSPHSKACSRQT |  |  |  |  |  |  | 0.000 | 0.000 | 0.000 | 2.468 | 42.696 | 0.000
19 | KTINGSGSPHSKAFSWQT |  |  |  |  |  |  | 0.000 | 0.000 | 0.000 | 1.805 | 51.304 | 0.000
20 | KTINGSGSPHSKAFYIQT |  |  |  |  |  |  | 0.000 | 0.000 | 0.000 | 0.239 | 17.172 | 0.000
21 | KTINGSGSPHSKAFYRQT |  |  |  |  |  |  | 0.000 | 0.000 | 0.000 | 3.577 | 77.541 | 0.000
22 | KTINGSGSPHSKAHARQT |  |  |  |  |  |  | 0.000 | 0.000 | 0.000 | 1.800 | 17.075 | 0.000
23 | KTINGSGSPHSKAKGWQT | 0.000 | 0.000 | 0.000 | 1.827 | 10.450 | 0.000 |  |  |  |  |  | 
24 | KTINGSGSPHSKAKKVQT | 0.000 | 0.000 | 0.000 | 3.974 | 10.102 | 0.000 |  |  |  |  |  | 
25 | KTINGSGSPHSKALRCQT |  |  |  |  |  |  | 0.000 | 0.000 | 0.000 | 1.892 | 17.283 | 0.000

Reference: patent US20260250318A1, “COMPOSITIONS AND METHODS FOR CROSSING THE BLOOD BRAIN BARRIER” (VOYAGER THERAPEUTICS, INC., priority 2022, published 2026)
